Data: a melting point compilation (Tetko et al.)

Structure (SMILES) | melting point
CCCCCCCOc1ccc(N)cc1 | 45 °C
Cc1ccc(C(N)CC(=O)O)cc1 (stereo not given) | 223 to 227 °C
CC(C)OC(=O)C(C(=O)OC(C)C)=C1SCCS1 | 54.9 °C
N#CCCNCCC#N | -6 °C
COc1cc(Br)cc2cc(C(=O)O)c(=O)oc12 | 226 to 228 °C
CC1CS(=O)(=O)CCN1N=Cc1ccc([N+](=O)[O-])o1 (stereo not given) | 181 °C
CC=NNc1ccc([N+](=O)[O-])cc1[N+](=O)[O-] | 166 °C
CN1CCN(C2=C(Cl)C(=O)c3ccccc3C2=O)CC1 | 120 °C
Nc1ccnc(Br)c1 | 98 °C
COc1c(C)cc(N)cc1C | 64 °C
COC1=CC2C3Cc4ccc(OC)c(O)c4C2(CCN3C)CC1=O (stereo not given) | 162 °C
CCCCNC(=O)c1ccc(Cl)cc1O | 91.5 °C
Cc1cc(C)c(CC(=NOCc2ccccc2)c2cc3cc(Br)ccc3o2)c(C)c1 | 126 to 127 °C
Clc1cccc(-c2cccc(Cl)c2)c1 | 29 °C
N#Cc1ccccc1CBr | 72 °C
O=C(O)C(c1ccccc1)C1CCCCC1 (stereo not given) | 148 to 151 °C
CC12CCC(=O)C=C1CCC1C2CCC2(C)C(OC(=O)CCC3CCCC3)CCC12 (stereo not given) | 155 °C
Cc1c(O)cccc1C(=O)O | 144 °C
O=[N+]([O-])c1ccc(/C=C/c2ccc3c(c2)OCO3)c([N+](=O)[O-])c1 | 178 to 179 °C
CCOC(C/N=C/c1ccc(/C=N/CC(OCC)OCC)c([N+](=O)[O-])c1)OCC | 38 °C
COc1ccc(CC(=O)O)c(OC)c1 | 110 °C
CCC/C=C/CCCCCC | -63.7 °C
CCOc1ccc(C(=S)N2CCOCC2)cc1OC | 119 °C

Structure (SMILES) | melting point
O=C(O)C(=Cc1ccccc1)C(=Cc1ccccc1)C(=O)O | 223 °C
Clc1nc(Br)[nH]c1Cl | 215 to 216 °C
Cc1ccc(N(CCO)CCO)cc1N=Nc1ccc([N+](=O)[O-])cc1 | 160 °C
Clc1nc(Cl)c2nc[nH]c2n1 | 184 to 186 °C
C(=C(/c1ccccc1)c1nc2ccccc2s1)/c1ccccc1 | 109 °C
COc1ccc2ccccc2c1C | 126 °C
O=Cc1ccc(F)cc1 | -10 °C
Oc1ccc(-n2ccnc2)cc1 | 204 to 206 °C
N=C(N)NCC(=O)O | 300 °C
COC(=O)C(O)C(O)C(=O)OC (stereo not given) | 59 °C
CC(=O)OC[C@H]1O[C@@H](OCc2ccccc2)[C@H](OC(C)=O)[C@@H](OC(C)=O)[C@@H]1OC(C)=O | 96 to 100 °C
CCC1(CC2(c3cccc(Cl)c3)CO2)C(=O)c2ccccc2C1=O (stereo not given) | 61 °C
Nc1cc(C(=O)O)cc(C(=O)O)c1 | 360 °C
CC(C)(C)OC(=O)N[C@@H](Cc1cccc(C#N)c1)C(=O)O | 124 °C
Clc1ccnc(Cl)n1 | 60 °C
O=S(=O)(Cl)c1sc(-c2ccccc2)nc1-c1ccccc1 | 173 to 174 °C
Cc1ccc(-c2snc(Cl)c2C#N)cc1 | 82 to 83 °C
NC(Cc1cc(I)c(Oc2ccc(O)c(I)c2)c(I)c1)C(=O)O (stereo not given) | 236 °C
Cn1c(=O)n(-c2ccccc2)c(=O)c2c3c(sc21)CCCC3 | 249 to 251 °C
CCC1(C(=O)NC(C)c2ccc(Cl)cc2)C(C)C1(Cl)Cl (stereo not given) | 160 °C
Cc1nc2ccccn2c1CO | 157 to 158 °C
NNC(=O)COc1ccc(F)cc1 | 125 °C
COC(=O)c1cccc(OC)c1OC | 46 to 49 °C

Structure (SMILES) | melting point
Cc1cc(C(C)(C)C)cc(C)c1CC1=NCCN1 | 131 °C
Clc1ccc2c(c1)Oc1ccc(Cl)cc1O2 | 202 °C
CCC(=O)Nc1ccc(Cl)c(Cl)c1 | 92 °C
COc1ccc(CCCCO)cc1 | 3.5 °C
C=C(C)c1ccc(C(C)C)cc1 | -30.6 °C
C#CCOc1cc(-n2nc3n(c2=O)CCCC3)c(Cl)cc1Cl | 168 °C
Cc1cnc2c(C(=O)O)c(Cl)ccc2c1 | 253 °C
COC(=O)CCC(C)C1CCC2C3C(=O)C(Br)C4CCCCC4(C)C3CCC12C (stereo not given) | 123 to 124 °C
NC(C(=O)O)(c1ccccc1)c1ccccc1 | 244 to 247 °C
O=C(O)C1(O)c2ccccc2-c2ccc(Cl)cc21 (stereo not given) | 152 °C
CC(C)=CC(=O)NS(=O)(=O)c1ccc(N)cc1 | 184 °C
c1ccc(/N=N/c2ccc(-c3ccc(NNc4ccccc4)cc3)cc2)cc1 | 172 to 173 °C
COc1ccc(C2Sc3ccccc3NC(=O)C2O)cc1 (stereo not given) | 203 to 207 °C
Nc1ccc(-c2ccc(NNc3ccccc3)cc2)cc1 | 140 °C
CCCCCCCCCCCCCCCCC#N | 34 °C
c1ccc(C2=C(c3ccccc3)C(c3ccccc3)=C(c3ccccc3)C2)cc1 | 179 to 182 °C
CC(C)(C)N(NC(=O)c1ccccc1)C(=O)c1ccccc1[N+](=O)[O-] | 182 °C
Cc1ccc(C(c2ccc(C)o2)c2cc(Cl)ccc2O)o1 | 85 °C
O=C(CNc1ccccc1)Nc1ccc(Br)cc1 | 154 °C
ClCC(Cl)C(Cl)=C(Cl)C(Cl)CCl (stereo not given) | 58.5 °C
O=[N+]([O-])c1ccc(NS(=O)(=O)c2ccc(Cl)c(C(F)(F)F)c2)c(Cl)c1 | 170 °C
CSC(SC)=C(C#N)S(=O)(=O)C(C)C | 88 to 91 °C
CC1CCCS1 (stereo not given) | -101 °C

Structure (SMILES) | melting point
O=C(O)c1ccc(Oc2cccnc2)o1 | 150 to 153 °C
CC[C@@]1(O)CC[C@H]2[C@@H]3CCC4CC(OC(C)=O)CC[C@]4(C)[C@H]3CC[C@@]21C (stereo not given in full) | 164 to 165 °C
COc1cccc(C=O)c1OC | 52 °C
NNC(=O)c1ccc(-c2ccccc2)cc1 | 194 °C
C[Si](C)(C)C#CC#C[Si](C)(C)C | 112 °C
CCNS(=O)(=O)c1ccc(C)cc1 | 64 °C
CN(C)CCC(O)(c1ccccc1)c1ccccc1Cl (stereo not given) | 120 °C
CC1(c2ccccc2)NC(=O)NC1=O (stereo not given) | 199 to 201 °C
Cc1cc(C)c(C(=O)P(=O)(c2ccccc2)c2ccccc2)c(C)c1 | 90 °C
CCOC(=O)c1nn(-c2ccc(C)cc2)c(C)c1C(=O)C1=NOC2C(=O)N(c3ccc(OC)cc3)C(=O)C12 (stereo not given) | 221 °C
CC1(C)OC2C(CO)OC(n3ccc(=O)[nH]c3=O)C2O1 (stereo not given) | 163 to 166 °C
CC(C)(C)[N+](=O)[O-] | 26.2 °C
O=C(C(Cl)(Cl)Cl)C(Cl)(Cl)Cl | -2 °C
O=C(O)c1cccc(-c2ncccn2)c1 | 180 to 182 °C
CC(C)(C)c1cc(C(=O)c2ccccc2)c(O)cc1O | 144 to 148 °C
COC(=O)c1ccc(OCc2ccccc2)cc1 | 98 °C
O=Cc1cc(I)ccc1F | 44 °C
O=Cc1cc([N+](=O)[O-])ccc1N1CCOCC1 | 115 °C
Cc1ccc(S(=O)(=O)N2C(C)C2c2ccccc2)cc1 (stereo not given) | 188 to 190 °C
CC(=O)Nc1cc(NC(C)=O)c(C=Cc2ccccc2)c(NC(C)=O)c1C=Cc1ccccc1 | 330 °C
CC(C)(N)C(=O)O | 335 °C
